Like-named read-outs stand apart in the source and are kept apart here.
Assays:
C. albicans (ATCC 90028) [1] = assay: Galleria mellonella infection (log CFU reduction) assay; assay type: in vivo, Candida albicans in Galleria mellonella larvae; settings: 1 mM, 10 μL; Pt1 19 mg/kg, Pt2 28 mg/kg, fluconazole 12 mg/kg; 24 h at 37 °C; vs 10% DMSO control
Procedure: To quantify the possible protective effect of Pt1 and Pt2 in G. mellonella challenged with C. albicans, we conducted a CFU reduction assay with these compounds. Briefly, G. mellonella larvae were inoculated with C. albicans (ATCC 90028) and incubated for 2 h at 37 °C. The larvae were then injected with 10 μL of the corresponding compound solution (1 mM) or control (same concentration and injection volume) and incubated for 24 h at 37 °C. The larvae were then anesthetized, macerated, and serially diluted onto SDA (Sabouraud dextrose agar) plates. After 48 h of incubation, the CFUs were counted.
A log CFU reduction assay was conducted for two compounds and two control groups. […] Fluconazole (1 mM) and 10% DMSO were used once again as the control groups. Fifteen G. mellonella larvae (200–250 mg) per test group were selected and inoculated with 10 μL of C. albicans at a concentration of 5 × 10^7 cells/mL and incubated on 90 mm Petri dishes in groups of five larvae for 2 h at 37 °C. Larvae were then subsequently injected with 10 μL of the corresponding test compound or control and returned to Petri dishes to incubate for 24 h at 37 °C.
Larvae were then anesthetized on ice for 5 to 10 min before being placed in individual prefilled 2 mL tubes with 3.0 mm diameter zirconium beads with 1000 μL of PBS. They were then macerated briefly using the BeadBug 6 Homogenizer (Benchmark Scientific, USA) in two 45 s intervals at 4350 rpm. After homogenization, serial dilutions of 1:100, 1:1000, and 1:10,000 were then made for each larva/tube, and 100 μL of the dilution was spread plated onto SDA plates with 50 μg/mL chloramphenicol. Plates were then incubated at 27 °C for 48 h before CFUs were counted.
A one-way ANOVA was conducted to compare the CFU counts for Pt1, Pt2, and both controls. After a significant difference was observed between the groups, a subsequent Tukey’s pairwise test was used to compare the individual test groups with each other.

[2] = system: Candida albicans ATCC 90028 NCCLS11; assay: Antifungal MIC assay; assay type: cell-based; settings: for MIC: Candida albicans, ATCC90028, comparator antifungals, read-out: MIC* Candida albicans ATCC 90028
Method in brief: (§1)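 Broth microdilution in YNB medium at a final density of 2.5 × 10^3 CFU/mL, from yeast grown 3 days on YPD agar at 30 °C; incubated 35 °C for 36 h without shaking. MIC is the lowest concentration giving ≥80% growth inhibition (CLSI M27 score 0–1); n = 4–8 from replicate independent runs.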

C. albicans (ATCC 90028) [3] = assay: Galleria mellonella infection (survival) assay; assay type: in vivo, Candida albicans in Galleria mellonella larvae; settings: G. mellonella inoculated with C. albicans, 10 μL compound solution, 5 days, vs untreated control
Procedure: In an initial survival assay, G. mellonella larvae were inoculated with C. albicans (ATCC 90028). The larvae were then injected with 10 μL of the compound solution, and their survival was monitored for the next 5 days. Fluconazole and 10% DMSO injections were used as controls.
The globally available strains for C. albicans and C. neoformans, namely, ATCC 90028 and H99, respectively, were used to assess the antifungal potential of the panel of cobalt complex compounds in the G. mellonella insect model. Each strain was cultured on Sabouraud dextrose agar (SDA) for 24–48 h at 27 °C prior to inoculation. Yeast colonies were then suspended in a phosphate-buffered saline solution (PBS), and cells’ concentrations were adjusted using a Neubauer counting chamber to 5 × 10^7 cells for ATCC 90028 and 1 × 10^8 cells for H99. Compounds were prepared by dissolving in 100% dimethylsulfoxide (DMSO) to 4 or 10 mM depending on compound solubility before being further diluted with water to 0.4 or 1 mM for injection into larvae.
Each group of larvae was subsequently incubated at 37 °C for 2 h in 90 mm Petri dishes. After incubation, larvae were injected with 10 μL of the compound into the last right pro-leg and returned to Petri dishes to incubate at 37 °C for 5 days. In addition to the panel of metal compounds, fluconazole (FLC) was included as a positive control (1 and 0.4 mM) and reference antifungal. Larvae inoculated with just the fungal strains and the fungal strains with 10% DMSO were also included as comparison groups. Larvae injected concurrently with PBS instead of fungal inoculum and compounds were used as negative controls. All larvae were checked daily for survival.

[4] = system: Candida auris CBS12373 KCTC 17810; assay: Antifungal MIC assay, extended panel; assay type: cell-based; settings: for MIC: Candidozyma auris, comparator antifungals, read-out: MIC* Candida auris CBS12373
Method in brief: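 Yeast was grown for 3 days at 30 °C on YPD agar. Five colonies were suspended to 1 × 10^6 to 5 × 10^6 CFU/mL, checked by OD530, diluted in YNB medium, and dispensed onto compound-loaded 384-well NBS plates at 2.5 × 10^3 CFU/mL in 50 μL. Plates were covered and incubated without shaking at 35 °C for 36 h to determine MIC.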

[5] = system: Candida auris CBS10913 JCM 15448; assay: Antifungal MIC assay, extended panel; assay type: cell-based; settings: for MIC: Candidozyma auris, comparator antifungals, read-out: MIC* Candida auris CBS10913
Method in brief: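 Yeast strains were grown on YPD agar at 30 °C for 3 days. Five colonies were suspended to 1 × 10^6 to 5 × 10^6 CFU/mL (by OD530), diluted in YNB medium, and dispensed into compound-containing 384-well NBS plates to 2.5 × 10^3 CFU/mL in 50 μL. Covered plates were held at 35 °C for 36 h without shaking, and MIC was determined by broth dilution.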

[6] = system: Cryptococcus neoformans H99 ATCC 208821 type strain; assay: Antifungal MIC assay; assay type: cell-based; settings: for MIC: read-out: MIC* Cryptococcus neoformans ATCC 208821
Method in brief: as §1

[7] = system: HEK-293 human embryonic kidney cells ATCC CRL-1573
Procedure: The cells were incubated together with the compounds for 20 h at 37 °C in 5% CO2. […] Tamoxifen (Sigma T5648) was used as internal control on each plate.

[8] = system: Cryptococcus deuterogattii CBS7750 VGII; Serotype B; assay: Antifungal MIC assay, extended panel; assay type: cell-based; settings: extended panel; 50% inhibition, MIC score 2
[9] = system: Candida tropicalis ATCC 750; assay: Antifungal MIC assay, extended panel; assay type: cell-based; settings: extended panel; 50% inhibition, MIC score 2
[10] = system: Candida glabrata ATCC 90030 NCCLS 84; assay: Antifungal MIC assay, extended panel; assay type: cell-based; settings: extended panel; 50% inhibition, MIC score 2
[11] = system: Candida tropicalis ATCC 750; assay: Antifungal MIC assay, extended panel; assay type: cell-based; settings: extended panel, second batch; ≥80 or ≥50% inhibition
Method in brief: as §1

[12] = system: Cryptococcus deuterogattii CBS7750 VGII; Serotype B; assay: Antifungal MIC assay, extended panel; assay type: cell-based; settings: extended panel, second batch; ≥80 or ≥50% inhibition
Method in brief: as §1

[13] = system: Cryptococcus deuterogattii ATCC 32609 VGII; assay: Antifungal MIC assay, extended panel; assay type: cell-based; settings: extended panel, second batch; ≥80 or ≥50% inhibition
[14] = system: Candida glabrata ATCC 90030 NCCLS 84; assay: Antifungal MIC assay, extended panel; assay type: cell-based; settings: extended panel, second batch; ≥80 or ≥50% inhibition
Method in brief: as §1

human red blood cells = assay type: cell-based
Method in brief: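 Washed human erythrocytes at 0.5 × 10^8 cells/mL incubated with compound, then centrifuged. Haemolysis read as supernatant OD405, normalised to untreated cells (0%) and 1% Triton X-100 (100%), with melittin as internal plate control.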

[15] = system: Acinetobacter baumannii ATCC 19606 type strain; assay: CO-ADD antibacterial MIC assay; assay type: cell-based; settings: initial CO-ADD dose-response screening; ≥80% growth inhibition
Method in brief: (§2)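 Strains grown overnight in cation-adjusted Mueller Hinton broth at 37 °C, diluted 40-fold and regrown 1.5–3 h to mid-log, then seeded at 5 × 10^5 CFU/mL with compound. After 18 h static incubation at 37 °C, OD600 was read; MIC is the lowest concentration giving ≥80% growth inhibition.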

[16] = system: Pseudomonas aeruginosa ATCC 27853 QC control strain; assay: CO-ADD antibacterial MIC assay; assay type: cell-based; settings: initial CO-ADD dose-response screening; ≥80% growth inhibition
Method in brief: as §2

[17] = system: Escherichia coli ATCC 25922 FDA control strain; assay: CO-ADD antibacterial MIC assay; assay type: cell-based; settings: initial CO-ADD dose-response screening; ≥80% growth inhibition
Method in brief: as §2

[18] = system: methicillin-resistant Staphylococcus aureus ATCC 43300; assay: CO-ADD antibacterial MIC assay; assay type: cell-based; settings: initial CO-ADD dose-response screening; ≥80% growth inhibition
Method in brief: as §2

[19] = system: Cryptococcus deuterogattii ATCC 32609 VGII; assay: Antifungal MIC assay, extended panel; assay type: cell-based; settings: extended panel; 50% inhibition, MIC score 2
[20] = ≥80% inhibition, converted with MW of Table S12
[21] = extended panel, second batch, ≥80 or ≥50% inhibition
[22] = extended panel, 50% inhibition, MIC score 2
[23] = initial CO-ADD dose-response screening, ≥80% growth inhibition

With `OC(Cn1cncn1)(Cn1cncn1)c1ccc(F)cc1F` [Fluconazole, reference compound] the “reduction in CFUs” value (C. albicans (ATCC 90028) [1]) was 1.1 log10, the MIC ([2]; MIC = ≥80% inhibition) was 4 ng/mL and the MIC [2, 20] was 0.018 µM. For the same compound, the larva survival (C. albicans (ATCC 90028) [3]) was “significant larva survival”, the MIC ([4]; MIC = ≥80% inhibition) was at most 4 ng/mL and the MIC [4, 20] was at most 0.018 µM. It also gave an MIC ([5]; MIC = ≥80% inhibition) of at most 4 ng/mL, an MIC [5, 20] of at most 0.018 µM and an MIC ([6]; Cryptococcus neoformans, ATCC208821, comparator antifungals, MIC = ≥80% inhibition) of 2000 to 4000 ng/mL. The MIC ([6]; Cryptococcus neoformans, ATCC208821, comparator antifungals, ≥80% inhibition, converted with MW of Table S12) was 9.25 to 18.5 µM.
In the case of `CS(=O)(=O)[O][Pd][c]1ccccc1-c1ccccc1N.CS(=O)(=O)[O][Pd][c]1ccccc1-c1ccccc1N` [Pd2], the CC50 ([7]; read-out: HEK293 CC50, ranges obtained upon retesting, new batch) is reported as 38 to 53 µM, the CC50 ([7]; read-out: HEK CC50, initial CO-ADD screening, 20 h) is reported as over 20 µM and the “MIC50 Cryptococcus deuterogattii CBS7750” value [8] is reported as at most 0.006 µM. For the same compound, the “MIC Candida albicans ATCC 90028” value [2, 21] was 0.05 to 0.2 µM, the “MIC50 Candida albicans ATCC 90028” value [2, 22] was 0.049 to 0.195 µM and the “MIC Ca” value [2, 23] was 1.25 µM. The “MIC50 Candida tropicalis ATCC 750” value [9] was 0.195 to 0.391 µM, the “MIC50 Candida glabrata ATCC 90030” value [10] was 0.012 to 0.195 µM and the “MIC Candida auris CBS12373” value [4, 21] was 0.024 to 0.049 µM. For the same compound, the “MIC50 Candida auris CBS12373” value [4, 22] was 0.024 to 0.049 µM, the “MIC Candida auris CBS10913” value [5, 21] was 0.024 to 0.098 µM and the “MIC50 Candida auris CBS10913” value [5, 22] was 0.024 to 0.098 µM. For the same compound, the “MIC Candida tropicalis ATCC 750” value [11] was 0.195 to 0.391 µM, the MIC [12] was 0.098 µM and the “MIC Cryptococcus deuterogattii ATCC 32609” value [13] was 0.024 to 0.049 µM. The “MIC Candida glabrata ATCC 90030” value [14] was 0.049 to 0.195 µM, the MIC [6, 21] was 0.024 µM and the “MIC50 Cryptococcus neoformans ATCC 208821” value [6, 22] was at most 0.006 to 0.024 µM. For the same compound, the “MIC Cn” value [6, 23] was 0.31 µM, the “RBC HC10” value (human red blood cells; initial CO-ADD screening, 1 h, 10% hemolysis) was over 20 µM and the “RBC HC10” value (human red blood cells; ranges obtained upon retesting, new batch) was 0.2 to 3 µM. For the same compound, the “MIC Ab” value [15] was over 20 µM, the “MIC Pa” value [16] was over 20 µM and the “MIC Ec” value [17] was over 20 µM. The “MIC MRSA (Sa)” value [18] was over 20 µM and the “MIC50 Cryptococcus deuterogattii ATCC 32609” value [19] was 0.024 to 0.098 µM.

Reference: paper PMC9597602, “Metal Complexes as Antifungals? From a Crowd-Sourced Compound Library to the First In Vivo Experiments” (JACS Au, 2022)
